Here are results for 33 compounds from US12605374B2, “Methods for drug screening and compositions useful for the inhibition of cell proliferation and/or cell survival” (The Brigham and Women's Hospital, Inc., priority 2019, dated 2026).

One experiment has as its system embryonic zebrafish. Nature of the experiment: Blinded re-screen of top 10 prioritized ChemBridge compounds for developmental phenotypes in embryonic zebrafish. Format: in vivo. The following applies: for Phenotype Observed: embryonic zebrafish, 10 uM introduced at 5 hpf, scored at 24 and 48 hpf, blinded, in duplicate. On the procedure:
Male and female wild-type (AB) fish were housed and embryos bred for screening using standard protocols. […] 10 mM compound stocks were diluted to 2 mM using DMSO, and 1 μL of each diluted compound solution was introduced into individual wells at 5 hours post fertilization (hpf) using a manual multichannel pipettor (10 uM final concentration). The first and last column of each plate received only DMSO, serving as negative control wells.
Embryos were screened for a series of developmental phenotypes at both 24 and 48 hpf using standard light microscopy. […] Only those wells where at least two of the three embryos were dead or delayed were annotated as a hit for 24 hour death or delay/arrest, respectively.
Resulting scores for each phenotype were used to rank the over 900,000 compounds. Enrichment for compounds with high (>0.95) similarity to known therapeutics (defined using Tanimoto Coefficient of molecular fingerprints) was calculated for each of the 6 ranked lists using gene set enrichment analysis^69. The top 10 highest-ranking compounds from each of the 6 lists were screened as described above, blinded and in duplicate.

In the next experiment the test system is zebrafish embryos. Nature of the experiment: Rescue of developmental delay/arrest phenotype by phospholipase products. Format: in vivo. The following applies: for rescue of the developmental delay/arrest phenotype of DA5: zebrafish embryos treated with DA5. The source says: FIG. 15 (A)-(B): Effect of timing and injection on DA5 rescue. Rescue of the DA5 phenotype was compared using introduction of phosphatidic acid (PAC) in-well, versus injected into the embryo at the 1-cell developmental stage (A; DA5 introduced at 5 hpf).
Given the known role of anoxia in cancer cell proliferation, we investigated the potential of the DA compounds to inhibit cancer cell growth in cell culture. We found a significant reduction in the proliferation of immortalized cells upon introduction of all DA compounds (FIG. 16).

“Also recorded” adds a separate entry of the source.

On to `CN(CC1CCN(CCc2ccc(Cl)cc2)CC1)C(=O)c1cccc(N(C)C)c1` [ChemBridge ID 39911836], for which the “Hit (predicted phenotype observed)” value with embryonic zebrafish (Prediction: Cardiac) is on record as “Yes”. In the experiment with embryonic zebrafish, the “Phenotype Observed” value was “Pericardial edema, no heart beat”.
For the compound `CCOC(=O)C1(CCOc2ccccc2)CCN(Cc2ccc(OC)cc2)CC1` [ChemBridge ID 38617825], the “Hit (predicted phenotype observed)” value with embryonic zebrafish (Prediction: Cardiac) is “No”. Further, the “Phenotype Observed” value in the experiment with embryonic zebrafish is on record as “Dead (48 h)”.
For `CN(CC1CCN(CCc2ccc(Cl)cc2)CC1)C(=O)c1ccsc1` [ChemBridge ID 59314184], the “Hit (predicted phenotype observed)” value in the experiment with embryonic zebrafish (Prediction: Cardiac) is “Yes”. Besides, in the experiment on embryonic zebrafish, the “Phenotype Observed” value is given as “Pericardial edema, no heart beat”.
Consider `CCOC(=O)C1(Cc2ccccc2)CCCN(Cc2nccn2CC)C1` (stereo not drawn) [ChemBridge ID 98334673], for which the “Hit (predicted phenotype observed)” value with embryonic zebrafish (Prediction: Pigmentation) and with embryonic zebrafish (Prediction: Pigmentation Only) was “Yes” in each case. Moreover, in the experiment with embryonic zebrafish, the “Phenotype Observed” value is “No pigmentation, cranial edema”.
Regarding `COC(=O)c1ccc(-c2nc(CN3CCCCC3c3cccc(OC)c3)c(C)o2)cc1` (stereo not drawn) [ChemBridge ID 20494296], in the experiment with embryonic zebrafish (Prediction: Body Axis), the “Hit (predicted phenotype observed)” value is recorded as “Yes”. For the same compound, the “Phenotype Observed” value in the experiment on embryonic zebrafish was “Short, no heads”.
For the compound `CSc1ccc(-c2nc(CN3CCCCC3c3nccn3C)c(C)o2)cc1` (stereo not drawn) [ChemBridge ID 23702187], the “Hit (predicted phenotype observed)” value in the experiment with embryonic zebrafish (Prediction: Pigmentation) is “Yes”. Further, the “Phenotype Observed” value with embryonic zebrafish is listed as “No pigmentation, cranial edema, slow heart beat”.
For `CN(CC1CCN(CCc2ccc(Cl)cc2)CC1)C(=O)c1ccccc1-n1cccn1` [ChemBridge ID 18069546], in the experiment with embryonic zebrafish (Prediction: Cardiac), the “Hit (predicted phenotype observed)” value is recorded as “Yes”. The “Phenotype Observed” value in the experiment with embryonic zebrafish was “Pericardial edema, no heart beat”.
On to Phosphatidic acid, for which the “rescue of the DA5 phenotype” value in the experiment with zebrafish embryos (DA5 introduced at 5 hpf, PAC in-well at 24 hpf, phenotypes surveyed at 36 hpf) is listed as “rescue still observed”; with zebrafish embryos (upon injection and introduction into embryonic medium, multiple time points after DA5) it was “rescued”. Also, the “rescue of the developmental delay/arrest phenotype of DA5” value in the experiment on zebrafish embryos was “rescued”; with zebrafish embryos (listed as phosphatidic acid) it was “rescue”. Besides, in the experiment with zebrafish embryos (zebrafish embryos treated with oligomycin A), the “rescue of the phenotype of oligomycin A” value is listed as “did not rescue”.
Turning to `COC(=O)c1ccc(-c2noc(CN(CCO)Cc3cccs3)n2)cc1` [ChemBridge ID 56638922], in the experiment with embryonic zebrafish (Prediction: Body Axis), the “Hit (predicted phenotype observed)” value is “Yes”. Also, the “Phenotype Observed” value in the experiment on embryonic zebrafish is recorded as “Small heads, short bodies”.
For `CCOC(=O)C1(C/C=C/c2ccccc2)CCCN(Cc2nccn2CC)C1` (stereo not drawn) [ChemBridge ID 69904708], the “Hit (predicted phenotype observed)” value with embryonic zebrafish (Prediction: Pigmentation) and in the experiment with embryonic zebrafish (Prediction: Pigmentation Only) was “Yes” each time. Moreover, in the experiment on embryonic zebrafish, the “Phenotype Observed” value is listed as “No pigmentation, cranial edema, slow heart beat”.
With `CCOC(=O)C1(CCOc2ccccc2)CCN(Cc2cc(OC)cc(OC)c2)CC1` [ChemBridge ID 23490385], the “Hit (predicted phenotype observed)” value with embryonic zebrafish (Prediction: Cardiac) is on record as “Yes”; in the experiment with embryonic zebrafish (Prediction: Cranial Edema), “No”. Also, the “Phenotype Observed” value with embryonic zebrafish is recorded as “Pericardial edema, no heart beat”.
As to `COc1ccccc1Nc1nc(-c2ccncc2)cs1` [ChemBridge ID 5745969], the “Hit (predicted phenotype observed)” value in the experiment with embryonic zebrafish (Prediction: Dead) is reported as “No”. Also, the “Phenotype Observed” value in the experiment on embryonic zebrafish is reported as “Multiple severe phenotypes”.
Turning to `CCOC(=O)C1(CCc2ccccc2)CCCN(Cc2nccn2CC)C1` (stereo not drawn) [ChemBridge ID 13300080], the “Hit (predicted phenotype observed)” value with embryonic zebrafish (Prediction: Pigmentation) and in the experiment on embryonic zebrafish (Prediction: Pigmentation Only) was “Yes” each time. For the same compound, the “Phenotype Observed” value with embryonic zebrafish is given as “No pigmentation, dying; also recorded: No pigmentation, slow heart beat”.
For the compound `CCOC(=O)C1(CCOc2ccccc2)CCN(Cc2ccccc2OC)CC1` [ChemBridge ID 87194463], the “Hit (predicted phenotype observed)” value in the experiment on embryonic zebrafish (Prediction: Cardiac) is given as “No”. In the experiment on embryonic zebrafish, the “Phenotype Observed” value is on record as “Dead (48 h)”.
`CC(NCc1ccccc1O)C12CC3CC(CC(C3)C1)C2` (stereo not drawn) [ChemBridge ID 6108849]: the “Hit (predicted phenotype observed)” value in the experiment with embryonic zebrafish (Prediction: Pigmentation) and in the experiment on embryonic zebrafish (Prediction: Pigmentation Only) was “Yes” each time. Besides, in the experiment with embryonic zebrafish, the “Phenotype Observed” value was “No pigmentation, dying”.
Regarding `COC(=O)c1ccc(-c2nc(CN3CCCCC3c3nc4cc(F)ccc4[nH]3)c(C)o2)cc1` (stereo not drawn) [ChemBridge ID 22685803], the “Hit (predicted phenotype observed)” value with embryonic zebrafish (Prediction: Body Axis) is on record as “Yes”. Further, the “Phenotype Observed” value in the experiment with embryonic zebrafish is reported as “Most dead, remaining have small bodies”.
`OCCC1CN(Cc2ccc(F)cc2F)CCN1CCCc1ccccc1` (stereo not drawn) [ChemBridge ID 35983174]: the “Hit (predicted phenotype observed)” value with embryonic zebrafish (Prediction: Cardiac) and with embryonic zebrafish (Prediction: Cardiac Only) was “Yes” in each case. The “Phenotype Observed” value in the experiment on embryonic zebrafish is listed as “Pericardial edema, no heart beat”.
Regarding `CN(CC1CCN(CCc2ccc(Cl)cc2)CC1)C(=O)C1=CCCCC1` [ChemBridge ID 37690524], the “Hit (predicted phenotype observed)” value in the experiment on embryonic zebrafish (Prediction: Cardiac) is “Yes”. The “Phenotype Observed” value in the experiment with embryonic zebrafish is on record as “Pericardial edema, no heart beat”.
In the case of `Cc1oc(-c2cccc(C(F)(F)F)c2)nc1CN1CCCCC1c1nccn1C` (stereo not drawn) [ChemBridge ID 91866361], the “Hit (predicted phenotype observed)” value in the experiment with embryonic zebrafish (Prediction: Pigmentation) is reported as “Yes”. The “Phenotype Observed” value with embryonic zebrafish is given as “No pigmentation, cranial edema, slow heart beat”.
`O=C(c1cc(COc2ccc3ncccc3c2)on1)N1C[C@H]2CCC[C@H]1C2` [ChemBridge ID 54305680]: in the experiment on embryonic zebrafish (Prediction: Delay/Arrest), the “Hit (predicted phenotype observed)” value is “Yes”. Moreover, in the experiment on embryonic zebrafish, the “Phenotype Observed” value is reported as “Bud stage at 24 h, dead at 48 h”.
As for `CCOC(=O)C1(Cc2cccc(OC)c2)CCCN(Cc2nccn2CC)C1` (stereo not drawn) [ChemBridge ID 38433186], the “Hit (predicted phenotype observed)” value in the experiment with embryonic zebrafish (Prediction: Pigmentation) and with embryonic zebrafish (Prediction: Pigmentation Only) was “Yes” throughout. In the experiment with embryonic zebrafish, the “Phenotype Observed” value is recorded as “No pigmentation”.
As for `COC(=O)c1ccc(-c2noc(CN(CCO)Cc3ccccc3)n2)cc1` [ChemBridge ID 86606851], the “Hit (predicted phenotype observed)” value in the experiment on embryonic zebrafish (Prediction: Body Axis) is reported as “Yes”. Besides, the “Phenotype Observed” value with embryonic zebrafish is “Some dead, alive have no head, necrotic”.
Consider `COC(=O)c1ccc(-c2noc(CN(Cc3ccncc3)CC3CCCO3)n2)cc1` (stereo not drawn) [ChemBridge ID 18809966], for which, in the experiment on embryonic zebrafish (Prediction: Body Axis), the “Hit (predicted phenotype observed)” value is reported as “Yes”. For the same compound, the “Phenotype Observed” value in the experiment on embryonic zebrafish is “Small body (appear dorsalized)”.
`O=C(c1cc(COc2ccc3ncccc3c2)on1)N1CCCC(OCc2ccccn2)C1` (stereo not drawn) [ChemBridge ID 21652166]: the “Hit (predicted phenotype observed)” value in the experiment on embryonic zebrafish (Prediction: Delay/Arrest) is “Yes”. In the experiment on embryonic zebrafish, the “Phenotype Observed” value is 5-10 somite stage at 48 h.
As to `COC(=O)c1ccc(-c2nc(CN(C)C(C)c3nc(C)cs3)c(C)o2)cc1` (stereo not drawn) [ChemBridge ID 34105851], in the experiment on embryonic zebrafish (Prediction: Body Axis), the “Hit (predicted phenotype observed)” value is “Yes”. Further, the “Phenotype Observed” value with embryonic zebrafish is listed as “Small body (no head)”.
Take `COCC1CCN(C(=O)c2cc(COc3ccc4ncccc4c3)on2)CC1` [ChemBridge ID 13197878]: the “Hit (predicted phenotype observed)” value in the experiment with embryonic zebrafish (Prediction: Delay/Arrest) is on record as “Yes”. In addition, the “Phenotype Observed” value with embryonic zebrafish was “Bud stage at 24 h, dead at 48 h”.
As for `Br.COc1ccccc1Nc1nc(-c2sc(C)nc2C)cs1` [ChemBridge ID 5931065], the “Hit (predicted phenotype observed)” value with embryonic zebrafish (Prediction: Dead) is reported as “Yes”. Also, in the experiment on embryonic zebrafish, the “Phenotype Observed” value was “Dead (48 h)”.
Turning to `O=C(c1cc(COc2ccc3ncccc3c2)on1)N1C[C@@H]2C[C@H]3C[C@@H](C2)C[C@@H]1C3` [ChemBridge ID 19759648], the “Hit (predicted phenotype observed)” value in the experiment with embryonic zebrafish (Prediction: Delay/Arrest) is “Yes”. Besides, the “Phenotype Observed” value in the experiment on embryonic zebrafish is recorded as “Bud stage at 24 h, dead at 48 h”.
Turning to `CN(CC1CCN(CCc2ccc(F)cc2)CC1)C(=O)c1ccsc1` [ChemBridge ID 26410496], the “Hit (predicted phenotype observed)” value in the experiment on embryonic zebrafish (Prediction: Cardiac) is “Yes”. In the experiment with embryonic zebrafish, the “Phenotype Observed” value is listed as “Pericardial edema, no heart beat”.
In the case of `O=C(Nc1ccccc1Cl)N1CCN(c2ccccc2F)CC1` [ChemBridge ID 7008803], the “Hit (predicted phenotype observed)” value in the experiment on embryonic zebrafish (Prediction: Cranial Edema) is on record as “No”. The “Phenotype Observed” value with embryonic zebrafish was “slight discoloration”.
In the case of `O=C(c1cc(COc2ccc3ncccc3c2)on1)N1CCC(N2CCSCC2)CC1` [ChemBridge ID 45187255], the “Hit (predicted phenotype observed)” value in the experiment with embryonic zebrafish (Prediction: Delay/Arrest) is recorded as “Yes”. Moreover, in the experiment on embryonic zebrafish, the “Phenotype Observed” value is “Bud stage at 24 h, 5-18 somites at 48 h”.
In the case of `O=P(O)(O)O[C@@H]1[C@H](O)[C@H](O)[C@@H](OP(=O)(O)O)[C@H](OP(=O)(O)O)[C@H]1O` [D-myo-Inositol-1,4,5-triphosphate], the “rescue of the developmental delay/arrest phenotype of DA5” value with zebrafish embryos is recorded as “did not observe rescue”.
For `C[C@@H]1CN(C(=O)c2cc(COc3ccc4ncccc4c3)on2)C[C@H](C)O1` [ChemBridge ID 44889923], in the experiment with embryonic zebrafish (Prediction: Delay/Arrest), the “Hit (predicted phenotype observed)” value is “Yes”. Further, the “Phenotype Observed” value with embryonic zebrafish is “Look 24 h at 48 h”.
